Data from patent publication EP0504807B1, “Use of bis-(p-hydroxyphenylthio)methane derivatives to inhibit progressive development of insulin-dependent diabetes mellitus” (MERRELL PHARMACEUTICALS INC., priority 1991, dated 1992).

Legend:
[1] = test system: Female NOD mice; assay: Prevention of the progressive development of IDDM in the NOD mouse (incidence of diabetes by urine glucose and plasma glucose); type: in vivo
Source text: The non-obese diabetic (NOD) mouse has a genetic predisposition to developing IDDM, particularly among the females. Diabetes begins to appear at 12-14 weeks of age and by 30-36 weeks of age about 75-85% of female NOD's will have developed IDDM. As such, the NOD mouse provides a standard experimental model for IDDM in man which is well known and appreciated by those skilled in the art [see Lampeter, et al: Diabetologia 32, 703 (1989)]. The effect of experimental agents on the NOD mouse can thus be studied to determine whether these agents are active in inhibiting the development of diabetes.
Female NOD mice were maintained on standard laboratory rodent feed containing either 0% (Control Group) or 1% bis(3,5-di-tertiary-butyl-4-hydroxyphenylthio)methane (Treated Group) as an admixture. The mice were started on these diets at 4 weeks of age and continued until they were 24 weeks old. Each mouse was tested for diabetes at 8, 12, 14, 16, 18, 20, 22 and 24 weeks of age. Diabetic mice were detected by a positive urine glucose measurement and were confirmed by a plasma glucose level greater than 300 mg/dL. Urine glucose was determined using Diastix™ reagent strips for urinalysis (Miles Inc., Diagnostics Division, Elkhart, IN) and plasma glucose using Glucose (GDH Endpoint) Reagent™ (Seradyn, Inc., Indianapolis, IN).
Mice were counted as diabetic if a positive urine glucose and plasma glucose greater than 300 mg/dL were determined on 3 consecutive measurements. If mice were determined to be diabetic for 1 or 2 consecutive measurements and then died with physical indications of IDDM such as severe weight loss, these mice were also counted as diabetic.
At 24 weeks of age, 30 of 61 mice in the Control Group (49%) had become diabetic compared to 2 of 51 mice in the Treated Group (4%).
The treated, nondiabetic mice (N=38) not sacrificed at 24 weeks of age were switched to control diet and monitored, along with the 21 remaining controls, for 24 more weeks. During this period, 13 of 21 (62%) controls and 13 of 38 (34%) previously treated mice developed diabetes (p=0.04). Combining the two 24 week study periods, the percentage of mice that developed diabetes among the controls was 81% (51% of the controls were nondiabetic after 24 weeks of study and 38% of these were still nondiabetic after 24 more weeks for an overall total of 19% nondiabetic control animals). Among the group treated for 24 weeks the percentage of mice that developed diabetes after 48 weeks of study was 37% (96% were nondiabetic after 24 weeks and 66% of these were still nondiabetic 24 weeks after stopping treatment).

[2] = test system: Female NOD mice; assay: Pancreatic histopathology of NOD mice at 24 weeks of age (hematoxylin and eosin, immunoperoxidase for insulin); type: in vivo, NOD mouse; details: 1% in feed
Source text: At 24 weeks of age, randomly selected control (N=10) and treated (N=10) nondiabetic mice and all surviving diabetic control (N=15) and treated (N=1) mice were sacrificed. Pancreata were collected and stored in formalin, processed, embedded, and sectioned by standard histological methods. Sections stained with hemotoxylin and eosin or by immunoperoxidase for insulin (as a marker for the presence of β-cells) were examined light microscopically. […]

[3] = Clinical Status Diabetic, 1 mouse
[4] = Clinical Status Nondiabetic, 10 mice

CC(C)(C)c1cc(SCSc2cc(C(C)(C)C)c(O)c(C(C)(C)C)c2)cc(C(C)(C)C)c1O [Bis(3,5-di-tertiary-butyl-4-hydroxyphenylthio)methane]
percentage of mice that developed diabetes ([1]; after 48 weeks of study, group treated for 24 weeks, two 24 week periods combined, controls 81%): 37% | treated mice nondiabetic ([1]; at 24 weeks of age / after 24 weeks of study, 1% in feed, controls 51%): 96% | mice that had become diabetic ([1]; at 24 weeks of age, 1% in feed as an admixture from 4 to 24 weeks of age, Control Group 30 of 61): 2 of 51 | mice that had become diabetic (percentage) ([1]; at 24 weeks of age, 1% in feed from 4 to 24 weeks of age, Control Group 49%): 4% | still nondiabetic 24 weeks after stopping treatment ([1]; of the mice nondiabetic after 24 weeks of treatment, controls 38%): 66% | previously treated mice that developed diabetes ([1]; treated nondiabetic mice switched to control diet at 24 weeks of age, monitored 24 more weeks, controls 13 of 21, p=0.04): 13 of 38 | previously treated mice that developed diabetes (percentage) ([1]; treated nondiabetic mice switched to control diet at 24 weeks of age, monitored 24 more weeks, controls 62%, p=0.04): 34% | Atrophy [2, 3]: 1 number of mice | Insulitis [2, 3]: 1 number of mice | β-Cells Present [2, 3]: 1 number of mice | Atrophy [2, 4]: 2 number of mice | Insulitis [2, 4]: 9 number of mice
